Tested on: 349418-098-R-PDC complex spheroid viability
Assay: Anticancer human tumor 349418-098-R-PDC patient-derived lung adenocarcinoma cell line growth inhibition [RAS]
Conditions: for viability, T/C: stronger effect = lower value
In short: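 Multi-cell-type spheroids: tumor cells plus HUVEC endothelial cells and mesenchymal stem cells. RAS-pathway inhibitors were combined with targeted agents, each dosed in half-log steps down from clinical Cmax, or from 10 microM when Cmax was unknown.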

[1] = curve of first compound, second compound 0.0316 µM
[2] = curve of first compound, second compound 0.1 µM
[3] = curve of first compound, second compound 0.316 µM
[4] = curve of first compound, second compound 1 µM
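Further: spheroids exposed to compound for seven days before viability readout.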

`CC1(C)CCC(Nc2ncc(C(F)(F)F)c(-c3c[nH]c4c(P(C)(C)=O)c(C#N)ccc34)n2)CN1` (configuration not stated) + C#Cc1c(F)ccc2cc(O)cc(-c3ncc4c(N5CC6CCC(C5)N6)nc(OCC56CCCN5CC(F)C6)nc4c3F)c12 showed an IC50 [1] of 1.12 nM, an IC50 [2] of under 0.949 nM and an IC50 [3] of under 0.949 nM. The IC50 [4] was 1.34 nM, the IC50 (curve of first compound, second compound 3.16 µM) was under 0.949 nM and the IC50 (curve of first compound, second compound 10 µM) was under 0.949 nM. It also gave a viability, T/C (second compound 0.0316 µM, first compound 0.000949 µM) of 54.5%, a viability, T/C (second compound 0.0316 µM, first compound 0.003 µM) of 25.6% and a viability, T/C (second compound 0.0316 µM, first compound 0.00949 µM) of 14.3%. For the same compound, the viability, T/C (second compound 0.0316 µM, first compound 0.03 µM) was 11.7%, the viability, T/C (second compound 0.0316 µM, first compound 0.0949 µM) was 11.1% and the viability, T/C (second compound 0.0316 µM, first compound 0.3 µM) was 7.01%. The viability, T/C (second compound 0.1 µM, first compound 0.000949 µM) was 34.8%, the viability, T/C (second compound 0.1 µM, first compound 0.003 µM) was 24% and the viability, T/C (second compound 0.1 µM, first compound 0.00949 µM) was 17%. For the same compound, the viability, T/C (second compound 0.1 µM, first compound 0.03 µM) was 9.95%, the viability, T/C (second compound 0.1 µM, first compound 0.0949 µM) was 8.49% and the viability, T/C (second compound 0.1 µM, first compound 0.3 µM) was 8.13%. The viability, T/C (second compound 0.316 µM, first compound 0.000949 µM) was 49.9%, the viability, T/C (second compound 0.316 µM, first compound 0.003 µM) was 26.9% and the viability, T/C (second compound 0.316 µM, first compound 0.00949 µM) was 12.6%. The viability, T/C (second compound 0.316 µM, first compound 0.03 µM) was 10.3%, the viability, T/C (second compound 0.316 µM, first compound 0.0949 µM) was 10.5% and the viability, T/C (second compound 0.316 µM, first compound 0.3 µM) was 8.25%. It also gave a viability, T/C (second compound 1 µM, first compound 0.000949 µM) of 57.1%, a viability, T/C (second compound 1 µM, first compound 0.003 µM) of 33.4% and a viability, T/C (second compound 1 µM, first compound 0.00949 µM) of 13%. It also gave a viability, T/C (second compound 1 µM, first compound 0.03 µM) of 10.9%, a viability, T/C (second compound 1 µM, first compound 0.0949 µM) of 11.2% and a viability, T/C (second compound 1 µM, first compound 0.3 µM) of 8.31%. The viability, T/C (second compound 3.16 µM, first compound 0.000949 µM) was 43.3%, the viability, T/C (second compound 3.16 µM, first compound 0.003 µM) was 24.5% and the viability, T/C (second compound 3.16 µM, first compound 0.00949 µM) was 12.6%. It also gave a viability, T/C (second compound 3.16 µM, first compound 0.03 µM) of 10.2%, a viability, T/C (second compound 3.16 µM, first compound 0.0949 µM) of 9.93% and a viability, T/C (second compound 3.16 µM, first compound 0.3 µM) of 8.57%. The viability, T/C (second compound 10 µM, first compound 0.000949 µM) was 48.4%, the viability, T/C (second compound 10 µM, first compound 0.003 µM) was 23.8% and the viability, T/C (second compound 10 µM, first compound 0.00949 µM) was 16.3%. The viability, T/C (second compound 10 µM, first compound 0.03 µM) was 10.4%, the viability, T/C (second compound 10 µM, first compound 0.0949 µM) was 9.78% and the viability, T/C (second compound 10 µM, first compound 0.3 µM) was 7.07%.

For `CC(C)n1nc(-c2ccc3oc(N)nc3c2)c2c(N)ncnc21` + C=CC(=O)N1CCN(c2nc(OCC3CCCN3C)nc3c(F)c(-c4nc(N)cc(C)c4C(F)(F)F)c(Cl)cc23)C(C)C1, the IC50 (curve of first compound, second compound 0.00316 µM) was 5.33 nM, the IC50 (curve of first compound, second compound 0.01 µM) was 3.53 nM and the IC50 [1] was 3.24 nM. For the same compound, the IC50 [2] was 3.99 nM, the IC50 [3] was 3.07 nM and the IC50 [4] was 3.64 nM. The viability, T/C (second compound 0.00316 µM, first compound 0.000316 µM) was 85.2%, the viability, T/C (second compound 0.00316 µM, first compound 0.001 µM) was 90.4% and the viability, T/C (second compound 0.00316 µM, first compound 0.00316 µM) was 72.3%. For the same compound, the viability, T/C (second compound 0.00316 µM, first compound 0.01 µM) was 22.8%, the viability, T/C (second compound 0.00316 µM, first compound 0.0316 µM) was 8.58% and the viability, T/C (second compound 0.00316 µM, first compound 0.1 µM) was 6.85%. For the same compound, the viability, T/C (second compound 0.01 µM, first compound 0.000316 µM) was 79.3%, the viability, T/C (second compound 0.01 µM, first compound 0.001 µM) was 124% and the viability, T/C (second compound 0.01 µM, first compound 0.00316 µM) was 54.2%. The viability, T/C (second compound 0.01 µM, first compound 0.01 µM) was 15.6%, the viability, T/C (second compound 0.01 µM, first compound 0.0316 µM) was 7.53% and the viability, T/C (second compound 0.01 µM, first compound 0.1 µM) was 7.07%. For the same compound, the viability, T/C (second compound 0.0316 µM, first compound 0.000316 µM) was 76.6%, the viability, T/C (second compound 0.0316 µM, first compound 0.001 µM) was 115% and the viability, T/C (second compound 0.0316 µM, first compound 0.00316 µM) was 50.9%. It also gave a viability, T/C (second compound 0.0316 µM, first compound 0.01 µM) of 14.1%, a viability, T/C (second compound 0.0316 µM, first compound 0.0316 µM) of 8.15% and a viability, T/C (second compound 0.0316 µM, first compound 0.1 µM) of 5.8%. The viability, T/C (second compound 0.1 µM, first compound 0.000316 µM) was 52.8%, the viability, T/C (second compound 0.1 µM, first compound 0.001 µM) was 98.9% and the viability, T/C (second compound 0.1 µM, first compound 0.00316 µM) was 58.2%. The viability, T/C (second compound 0.1 µM, first compound 0.01 µM) was 14.5%, the viability, T/C (second compound 0.1 µM, first compound 0.0316 µM) was 8.94% and the viability, T/C (second compound 0.1 µM, first compound 0.1 µM) was 5.94%. The viability, T/C (second compound 0.316 µM, first compound 0.000316 µM) was 63.4%, the viability, T/C (second compound 0.316 µM, first compound 0.001 µM) was 90.8% and the viability, T/C (second compound 0.316 µM, first compound 0.00316 µM) was 49.3%. It also gave a viability, T/C (second compound 0.316 µM, first compound 0.01 µM) of 14%, a viability, T/C (second compound 0.316 µM, first compound 0.0316 µM) of 8.74% and a viability, T/C (second compound 0.316 µM, first compound 0.1 µM) of 6.6%. For the same compound, the viability, T/C (second compound 1 µM, first compound 0.000316 µM) was 57.6%, the viability, T/C (second compound 1 µM, first compound 0.001 µM) was 79.6% and the viability, T/C (second compound 1 µM, first compound 0.00316 µM) was 53.8%. For the same compound, the viability, T/C (second compound 1 µM, first compound 0.01 µM) was 15.2%, the viability, T/C (second compound 1 µM, first compound 0.0316 µM) was 8.85% and the viability, T/C (second compound 1 µM, first compound 0.1 µM) was 5.88%.

For `C#Cc1c(F)ccc2cc(O)cc(-c3ncc4c(N5CC6CCC(C5)N6)nc(OCC56CCCN5CC(F)C6)nc4c3F)c12` (configuration not stated), the viability, T/C (compound 0.0316 µM) was 87.2% [middle of 8 runs], the viability, T/C (compound 10 µM) was 71.8% [middle of 8 runs] and the IC50 (compound alone, run of 06/10/2024) was over 10000 nM.

Reference: PubChem BioAssay AID2060904 (Molecular Pharmacology Branch, DTP, NCI, 2025)
